# In patent US20220251152A1, “COMPOSITIONS AND METHODS FOR SELECTIVE PROTEIN DEGRADATION” (Novartis AG, priority 2019, published 2022):
# “Also recorded” adds a separate entry of the source.
# Key:
# [1] = tested on: CAR19 fused to HilD tag and/or FurON; test: Western blot of CAR19 fused to HilD tag and/or FurON in JNL cells; assay type: cell-based, human; details: CAR19-16GS-HilD-tag (construct 769); 10 μM lenalidomide
# Protocol: Viruses were prepared from maxi preps and used to transduce JNL cells. Either 275 μL of viral supernatant or 700 μL of viral supernatant was used for transduction. JNL cells are Jurkat cells engineered with a luciferase gene under control of the NFAT promoter.
# Briefly, cells were diluted to 0.5×10^6 in 3 mL total in 6 well dishes. […] Bazedoxifene was added at a final concentration of 1 μM to every well that contained a cell line expressing a fusion comprising FurON. […] Cells were incubated at 37° C. and 5% CO2 overnight.
# Lysates were centrifuged, supernatant transferred to new tubes and protein quantities read by Lowry Assay (BioRad 5000111). Each sample was normalized to 30 μg total protein in a 20 μL volume with 4× sample buffer (Thermo Scientific NP0007) and 10× reducing agent (Thermo Scientific NP0009). Samples were subjected to Western blot analysis using a mouse anti-V5 antibody (Thermo Scientific MA5-15253) at 1:1000 dilution, a mouse anti-actin antibody (Sigma Aldrich A5441) at 1:10000 dilution, and/or a mouse anti-CD3z antibody (BD 551034) at 1:1000 dilution.
# Cells were harvested and subjected to Western blot as described above using a mouse anti-actin antibody (Sigma Aldrich A5441) at 1:10000 dilution or a mouse anti-CD3zeta antibody (BD 551034) at 1:1000 dilution.
# [2] = tested on: CAR19 fused to HilD tag and/or FurON; test: Flow cytometry of surface CAR expression on JNL cells, 10 μM lenalidomide and/or bazedoxifene 24 hours; assay type: cell-based, human; details: FurON-CAR19 constructs with or without the HilD tag
# From the text: Next, the surface expression of CAR19 on stably transduced JNL cells was examined by flow cytometry. […] On Day 2, cells were harvested, stained using biotinylated-protein L (Genscript, M00097) followed by PE conjugated streptavidin (Jackson Lab, 016-110-084), and subjected to flow cytometry analysis using Fortessa instrument.
# [3] = tested on: HilD-tagged CAR19 or FurON-CAR19 (NFAT luciferase reporter); test: JNL NFAT luciferase reporter assay, lenalidomide dose-response at three treatment time points; assay type: cell-based, human; details: for decrease of luminescence signal at the highest doses: construct 767; for reduction of luminescence signal: highest 2-3 doses (10 μM, 3.16 μM, and 1 μM)
# Protocol: This study used the JNL cell line described above, which is a Jurkat cell line modified with an NFAT luciferase reporter. Co-culturing of CAR19-expressing JNL cells and CD19-expressing B cells activates the NFAT signaling, leading to luciferase expression.
# For target cell co-culture, K562 cells or CD19-expressing K562 cells were added to each well containing JNL cells and cultured on a GNF Systems Ultra-high throughput screening system in a 37° C. and 5% CO2 incubator.
# Nalm6 = test: In vivo tumor control by CART19.HilD after Nalm6 implant (total flux); design: species or system mice
# From the text: Total flux of ROI is plotted against days post Nalm6 implant.
# CAR19 internal HilDtag [4] = test: FACS and Western blot of cells expressing CAR19 internal HilDtag; assay type: cell-based; details: 10 μM lenalidomide
# [5] = tested on: CAR19 internal HilDtag (NFAT luciferase); test: JNL assay of CAR19 internal HilDtag with Nalm6 or K562 cells; assay type: cell-based; details: lenalidomide dose-response
# From the text: FIGS. 43A, 43B, and 43C are diagrams showing characterization of an exemplary anti-CD19 internal HilDtag CAR construct.
# CAR19 = test: Surface CAR expression in primary T cells expressing CAR19, flow cytometry; assay type: cell-based; details: lenalidomide 1, 0.1, 0.01 μM, 24 or 48 hrs, FIG. 31B
# From the text: Cells were harvested and washed with PBS.
# Nalm6 cells = test: CART killing assay against CD19 positive target cells (luciferase); assay type: cell-based; details: 1 μM lenalidomide, 20 hr co-culture; FIG. 32C
# From the text: (§1) The frozen CART cells were thawed in T cell media and co-cultured with either CD19 negative (K562 Cells) or CD19 positive target cells (Nalm6 cells), both expressing luciferase. Both the number of CART cells and the total number of T cells were normalized across samples; the latter was achieved by adding UTD cells. A titration of CART cells was done keeping the target cell number constant at 25,000 cells. The highest […] (E:T) explored was 20:1 and a 8 point dilution curve was used. […] The co-culture experiment was conducted in clear bottom black plates in a final volume of 200 μL. Upon a 20 hr incubation, 100 μL of supernatant was removed and cytokine levels were measured. To the rest, 100 μL Bright-Glo Luciferase assay reagent (substrate+enzyme) was added and incubated for 10 minutes, at room temperature. The % Killing was measured using the formula: Specific lysis (%)=(1−(sample luminescence/average maximal luminescence))*100.
# K562 Cells = test: CART killing assay against CD19 negative target cells (luciferase); assay type: cell-based; details: with or without 1 μM lenalidomide; FIG. 32A
# From the text: as §1
# [6] = tested on: IFN gamma and IL2 secretion; test: Cytokine secretion by CART cells co-cultured with CD19 positive cells; assay type: cell-based; details: 1 μM lenalidomide
# From the text: as §1
# luciferized Nalm-6 = test: Nalm-6 xenograft mouse model, tumor burden by IVIS; assay type: in vivo, NSG mice
# Protocol: (§2) Female NOD.Cg-Prkdc^scid Il2rg^tm1Wjl/SzJ mice (NSG) mice, 6-8 wk of age, were purchased from Jackson Laboratories. Animal studies were carried out under protocols approved by the Institutional Animal Care and Use Committee at NIBR. NSG mice were inoculated with 1.0×10^6 luciferized Nalm-6 intravenously. Sever days later, CAR-T cells were infused intravenously into tumor-bearing mice; unless otherwise stated, lenalidomide were dosed orally at the same time. Tumor burden was measured by IVIS and was quantified as radiance in the region of interest (ROI), which was generally the area of one mouse. Mice were euthanized upon losing more that 20% of body weight or development of hind limb paralysis. Graft vs. host disease was defined in indicated animals as hair loss, behavioral changes, and clear decrease in health not attributable to Nalm-6 luciferase signal.
# [7] = tested on: CART cells in peripheral blood; test: CART cells in peripheral blood of xenograft mice, flow cytometry; assay type: in vivo, NSG mice; details: after lenalidomide treatment; FIG. 35
# Protocol: as §2
# CAR19 internal HilDtag [8] = test: CAR19 internal HilDtag in JNL cells, FACS; assay type: cell-based; details: 10 uM lenalidomide, 24 hours; FIG. 43A
# Protocol: FACS: Cells were harvested in u-bottom plates and washed using 1×PBS. […] After incubation the cells were washed using PBS.
# CAR19 internal HilDtag [9] = test: CAR19 internal HilDtag in Jurkat cells, Western blot; assay type: cell-based; details: 10 uM lenalidomide, 24 hours; FIG. 43B
# From the text: The gels were run in duplicate, one for actin and the other for either V5 or CD3Z.
# CAR19 internal HilDtag [10] = test: Jurkat NFAT luciferase (JNL) CAR functional assay, CAR19 internal HilD-tag cells; assay type: cell-based; details: 8-point dilution, 10 uM top; FIG. 43C
# Protocol: Cell plating: The CAR19 Internal HilD-tag cell line was diluted to 0.5×10^6 in 20 ml RPMI 1640 media (Thermo Fisher Scientific 11875-085) 10% FBS 1× pen/strep. 20 ul (0.5×10^6 cells) of this cell line was plated in a white solid-bottom 384 well plates (Greiner789163-G).
# Plates were incubated for 15 hours at 37 C, 5% CO2.
# B-cell addition and functional assay: K562 and Nalm6 cells were re-suspended at 0.5×10^6 cells/ml. […] Cells were stored at 37 C, 5% CO2 incubator for eight hours. Samples were then treated with 40 ul (1:1) Bright Glo (Promega E2620) and luminescence was read using Perkin Elmer's Viewlux with a 20 second exposure.
smiles,measurement,setting,value
"Nc1cccc2c1CN(C1CCC(=O)NC1=O)C2=O (stereo not shown) [lenalidomide, 3-(4-amino-1-oxoisoindolin-2-yl)piperidine-2,6-dione]",time at which degradation is first evident,[1],≤ 4 h
same,time to maximal degradation,[1],≤ 8 h
same,lenalidomide-dependent reduction of surface CAR levels,[2],only observed when CAR19 was fused to the HilD tag
same,effect on CD19-induced NFAT reporter signal,"[3]; HilD-tagged CAR19 or lysine-free-HilD-tagged CAR19 (constructs 769, 770)",significantly reduced
same,effect on reporter response without the HilD tag,[3]; construct 765 (FurON_CAR19) with bazedoxifene,had no impact on reporter response; also recorded: did not impact the luminescence signal
same,decrease of luminescence signal at the highest doses,[3]; 8-hour treatment group (16 hr post-target cells),90%
same,decrease of luminescence signal at the highest doses,[3]; 28-hour treatment group (4 hr pre-target cells),100%
same,decrease of luminescence signal at the highest doses,[3]; 44-hour treatment group (20 hr pre-target cells),100%
same,reduction of CD19-induced reporter activation,"[3]; construct 767 with bazedoxifene, lenalidomide 4 hours prior to K562+CD19 target cells",~80%
same,reduction of luminescence signal,[3]; construct 769,~100%
same,reduction of luminescence signal,[3]; construct 770,~100%
same,"tumor control, later treatment of lenalidomide",Nalm6; day 5 post CART injection (FIG. 36),loss of tumor control
same,"tumor control, early injection of lenalidomide",Nalm6; mice treated with CART-HilD (FIG. 36),absence of tumor control
same,tumor control by CART19.HilD,Nalm6; total flux vs days post Nalm6 implant (FIG. 34),abolishes the ability of CART19.HilD to control tumor growth
same,CAR degradation (FACS),CAR19 internal HilDtag [4]; JNL cells,degradation
same,CAR19 degradation (Western blot),"CAR19 internal HilDtag [4]; Jurkat cells, 24 hours",degradation of CAR19
same,response to CD19 positive Nalm6 cells,[5],reduced this response in a dose-dependent manner
same,expression of CAR19,CAR19,did not affect expression of CAR19
same,killing curve of CART19-HilD against CD19-positive cells,Nalm6 cells,slightly shifted
same,killing against CD19 negative cells,K562 Cells,Low background killing
same,secreted IFN gamma by CART19 HilD cells,"[6]; CD19 positive cells, FIG. 33A",decreased
same,secreted IL2 by CART19 HilD cells,"[6]; CD19 positive cells, FIG. 33B",decreased
same,ability of CART19 to secrete cytokines,[6]; FIGS. 33A and 33B,immune to the addition of lenalidomide
same,ability of CART19.HilD to control tumor growth in vivo,"luciferized Nalm-6; lenalidomide 30 mg/kg bid orally, FIG. 34",totally abolish
same,Nalm6 growth in vivo,"luciferized Nalm-6; lenalidomide alone, data not shown",little effect
same,tumor relapse,"luciferized Nalm-6; lenalidomide dosed at day 5 after CART19HilD adoptive transfer, FIG. 36",tumor relapse a few days after lenalidomide dosing
same,ability to control tumor growth in vivo,"luciferized Nalm-6; lenalidomide dosed immediately after CART19.HilD transfer, FIG. 36",lost the ability to control tumor growth in vivo
same,CART cells in peripheral blood,[7],Loss of CART cells in peripheral blood
same,anti-CD19 CAR expression (FACS),CAR19 internal HilDtag [8],degradation
same,CAR19 protein (Western blot),CAR19 internal HilDtag [9],degradation of CAR19
same,response of CAR19 internal HilDtag JNL cells to CD19 positive Nalm6 cells,CAR19 internal HilDtag [10],reduced this response in a dose-dependent manner
